Test results: paper PMC8459971, “Evaluation of the hepatotoxicity of the novel GPR40 (FFAR1) agonist CPL207280 in the rat and monkey” (PLoS ONE, 2021)
Several values for one entry are separate records, joined by “and”; a condition that tells them apart may be missing. Identical values can stand only once.

Key:
[1] = Stability in microsomes, rat; type: in vitro ADME; conditions: for average DEG [%]: rat microsomes, with cofactors
Protocol: (§1) The final incubation volume was 500 μL. Two control compounds (verapamil and donepezil) were included for each microsomal species, along with the appropriate vehicle control. The reactions were terminated by transferring 50 μL of incubate to 100 μL methanol containing an internal standard (metoprolol) at appropriate time points (0, 10, 20, 40, 60, and 120 min for the test compound and 0, 5, 10, 20, 40, and 60 min for the control compounds). The termination plates were centrifuged at 4000 x g at 4°C for 30 min to precipitate the protein. The supernatants were then collected for analysis, and LC-MS/MS was used for detection purposes. The system consisted of an Acquity™ Binary Solvent Manager, Acquity™ 4-position heated column manager, 2777 Ultra High Pressure Autosampler, and a Xevo-TQ MS triple quadrupole mass spectrometer (Waters Ltd., Herts, UK). This process was carried out twice.

[2] = Stability in microsomes, dog; type: in vitro ADME; conditions: for average DEG [%]: dog microsomes, with cofactors
Protocol: as §1

[3] = Stability in microsomes, monkey; type: in vitro ADME; conditions: for average DEG [%]: monkey microsomes, with cofactors
Protocol: as §1

[4] = Stability in microsomes, mini pig; type: in vitro ADME; conditions: for average DEG [%]: minipig microsomes, with cofactors
Protocol: as §1

in vivo = conditions: for AUC(0-t): AUC24h (Mean); for AUC24h (Mean): both
MRP3 = MRP3 (Homo sapiens, UniProt O15438); assay: Vesicular transport inhibition assay, MRP3; conditions: for Accumulation (counts per minute; CPM) with AMP / Accumulation (counts per minute; CPM) with ATP: MRP3;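 note: membrane vesicles with radiolabelled probe substrate and 2 mM glutathione, 4 mM ATP versus AMP background control, vesicle-trapped substrate quantified by liquid scintillation counting after filtration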;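 for Accumulation (counts per minute; CPM) with AMP: ATP 4 mM vs AMP background separates transporter uptake from diffusion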;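 for Accumulation (counts per minute; CPM) with ATP: ATP 4 mM vs AMP background separates transporter uptake from diffusion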
Sequence of MRP3 (O15438 whole entry, the tested form may be a part): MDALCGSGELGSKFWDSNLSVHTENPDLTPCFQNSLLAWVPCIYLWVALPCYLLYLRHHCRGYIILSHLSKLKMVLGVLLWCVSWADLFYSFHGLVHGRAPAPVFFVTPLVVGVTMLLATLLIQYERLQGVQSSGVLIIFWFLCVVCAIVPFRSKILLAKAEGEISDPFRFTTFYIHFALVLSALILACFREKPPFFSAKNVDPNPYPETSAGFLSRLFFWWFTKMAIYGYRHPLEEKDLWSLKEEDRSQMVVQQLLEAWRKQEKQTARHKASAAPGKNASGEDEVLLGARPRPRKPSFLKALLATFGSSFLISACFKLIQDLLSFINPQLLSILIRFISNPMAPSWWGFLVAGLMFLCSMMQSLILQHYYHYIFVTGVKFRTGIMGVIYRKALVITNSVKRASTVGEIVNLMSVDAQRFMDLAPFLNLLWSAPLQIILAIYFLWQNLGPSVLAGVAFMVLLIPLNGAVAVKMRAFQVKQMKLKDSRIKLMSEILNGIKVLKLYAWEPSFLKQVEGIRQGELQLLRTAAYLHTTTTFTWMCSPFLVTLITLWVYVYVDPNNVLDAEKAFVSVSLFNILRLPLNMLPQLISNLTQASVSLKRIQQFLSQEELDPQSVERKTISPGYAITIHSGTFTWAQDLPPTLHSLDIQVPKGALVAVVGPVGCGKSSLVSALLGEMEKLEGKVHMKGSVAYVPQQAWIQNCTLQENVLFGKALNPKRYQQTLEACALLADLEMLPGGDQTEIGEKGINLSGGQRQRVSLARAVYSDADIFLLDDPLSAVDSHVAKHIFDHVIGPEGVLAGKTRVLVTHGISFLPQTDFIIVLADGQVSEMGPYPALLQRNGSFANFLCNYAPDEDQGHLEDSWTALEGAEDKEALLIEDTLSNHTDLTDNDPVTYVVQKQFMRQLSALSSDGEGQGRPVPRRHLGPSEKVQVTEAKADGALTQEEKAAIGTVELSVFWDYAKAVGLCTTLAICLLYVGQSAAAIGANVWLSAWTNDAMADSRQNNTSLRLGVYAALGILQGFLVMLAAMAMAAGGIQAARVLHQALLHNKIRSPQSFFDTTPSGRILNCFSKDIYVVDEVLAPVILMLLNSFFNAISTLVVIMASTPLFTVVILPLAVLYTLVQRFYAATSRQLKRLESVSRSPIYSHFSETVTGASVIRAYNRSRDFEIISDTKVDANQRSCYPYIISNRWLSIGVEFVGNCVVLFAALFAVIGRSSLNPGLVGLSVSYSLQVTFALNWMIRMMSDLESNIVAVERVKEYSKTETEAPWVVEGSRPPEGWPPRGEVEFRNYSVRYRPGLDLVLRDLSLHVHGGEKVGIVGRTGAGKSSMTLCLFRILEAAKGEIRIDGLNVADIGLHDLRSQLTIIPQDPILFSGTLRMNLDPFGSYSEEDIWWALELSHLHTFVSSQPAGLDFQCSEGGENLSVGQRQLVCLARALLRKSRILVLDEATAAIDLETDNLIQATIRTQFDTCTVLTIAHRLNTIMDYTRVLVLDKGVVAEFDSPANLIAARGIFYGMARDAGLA
Protocol: (§2) In the vesicular transport inhibition assay (for BSEP, MRP) compounds were incubated with membrane vesicle preparations and the probe substrate. Incubations were carried out in the presence of 4 mM ATP or AMP to distinguish between transporter-mediated uptake and passive diffusion into the vesicles. For MRP2 and MRP3, reactions were carried out in the presence of 2 mM glutathione. Compounds were added to the reaction mixture in 0.75 μL of solvent (1% of the final incubation volume). […] Reactions were initiated by the addition of 25 μL of 12 mM MgATP (or 12 mM AMP in assay buffer as a background control) and preincubated separately. Reactions were quenched by the addition of 200 μL of ice-cold washing buffer and immediate filtration via glass fiber filters mounted on a 96-well plate (filter plate). The filters were washed (5 × 200 μL of ice-cold washing buffer), dried, and the amount of substrate inside the filtered vesicles was determined by liquid scintillation counting.

BSEP = BSEP (Homo sapiens, UniProt O95342); assay: Vesicular transport inhibition assay, BSEP
Sequence of BSEP (O95342 whole entry): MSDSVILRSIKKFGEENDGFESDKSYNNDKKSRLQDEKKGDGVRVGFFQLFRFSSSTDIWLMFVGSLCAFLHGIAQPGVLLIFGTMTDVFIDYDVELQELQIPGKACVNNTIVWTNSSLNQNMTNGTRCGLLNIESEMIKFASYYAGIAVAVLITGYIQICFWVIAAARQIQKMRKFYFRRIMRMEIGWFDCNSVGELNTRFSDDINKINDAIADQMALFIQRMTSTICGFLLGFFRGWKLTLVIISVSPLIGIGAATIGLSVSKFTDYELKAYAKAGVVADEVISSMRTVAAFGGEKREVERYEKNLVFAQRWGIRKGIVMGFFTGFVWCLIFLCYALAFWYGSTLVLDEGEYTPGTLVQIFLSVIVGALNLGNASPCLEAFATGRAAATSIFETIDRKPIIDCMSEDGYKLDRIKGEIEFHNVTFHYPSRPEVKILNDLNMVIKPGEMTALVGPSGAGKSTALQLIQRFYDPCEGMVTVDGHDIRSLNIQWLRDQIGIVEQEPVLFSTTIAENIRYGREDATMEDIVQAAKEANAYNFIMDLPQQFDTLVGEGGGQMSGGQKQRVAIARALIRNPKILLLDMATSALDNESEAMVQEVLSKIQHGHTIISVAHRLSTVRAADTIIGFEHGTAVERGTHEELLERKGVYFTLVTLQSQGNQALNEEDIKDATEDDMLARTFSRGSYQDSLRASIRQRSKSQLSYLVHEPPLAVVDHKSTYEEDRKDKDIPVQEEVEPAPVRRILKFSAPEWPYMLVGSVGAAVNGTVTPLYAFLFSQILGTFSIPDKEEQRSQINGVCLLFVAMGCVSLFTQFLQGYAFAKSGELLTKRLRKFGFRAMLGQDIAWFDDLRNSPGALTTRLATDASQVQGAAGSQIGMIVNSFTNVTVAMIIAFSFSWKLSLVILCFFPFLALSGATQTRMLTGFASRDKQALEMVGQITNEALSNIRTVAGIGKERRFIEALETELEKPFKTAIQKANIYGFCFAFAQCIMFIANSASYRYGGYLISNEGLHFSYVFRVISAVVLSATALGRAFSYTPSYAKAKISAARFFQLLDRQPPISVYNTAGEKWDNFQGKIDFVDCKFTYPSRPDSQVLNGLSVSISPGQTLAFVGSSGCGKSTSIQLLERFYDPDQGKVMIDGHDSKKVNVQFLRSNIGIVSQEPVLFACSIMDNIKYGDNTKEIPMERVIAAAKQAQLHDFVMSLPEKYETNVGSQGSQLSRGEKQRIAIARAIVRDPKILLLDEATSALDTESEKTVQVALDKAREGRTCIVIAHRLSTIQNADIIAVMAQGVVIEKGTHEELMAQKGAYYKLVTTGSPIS
Protocol: as §2

OATP1B3 = biological target: T1, OATP1B3 (Homo sapiens, UniProt Q9NPD5); assay: Uptake transporter inhibition assay, OATP1B3; conditions: human, transformed HEK cells expressing OATP1B3, pH 7.4
T1 sequence (Q9NPD5 1-702): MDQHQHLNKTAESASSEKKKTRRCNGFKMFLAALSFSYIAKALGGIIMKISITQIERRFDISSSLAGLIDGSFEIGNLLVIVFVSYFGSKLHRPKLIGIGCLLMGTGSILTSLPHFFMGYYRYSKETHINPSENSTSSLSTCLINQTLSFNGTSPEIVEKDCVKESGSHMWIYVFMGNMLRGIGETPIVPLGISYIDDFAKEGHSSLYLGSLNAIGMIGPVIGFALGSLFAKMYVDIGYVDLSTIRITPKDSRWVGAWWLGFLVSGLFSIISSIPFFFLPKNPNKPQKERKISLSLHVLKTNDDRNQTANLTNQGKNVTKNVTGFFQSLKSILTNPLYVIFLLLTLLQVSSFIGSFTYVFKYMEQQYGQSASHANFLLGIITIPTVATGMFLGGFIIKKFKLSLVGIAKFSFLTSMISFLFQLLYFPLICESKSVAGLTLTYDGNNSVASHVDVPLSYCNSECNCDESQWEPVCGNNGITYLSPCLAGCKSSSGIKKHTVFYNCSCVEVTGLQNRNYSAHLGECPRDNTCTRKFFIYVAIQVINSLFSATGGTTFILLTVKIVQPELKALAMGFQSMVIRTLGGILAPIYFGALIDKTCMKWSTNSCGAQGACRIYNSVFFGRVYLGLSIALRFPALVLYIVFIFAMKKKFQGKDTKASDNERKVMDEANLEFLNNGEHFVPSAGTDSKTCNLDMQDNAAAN
Protocol: For the uptake transporter inhibition assay, cells were washed twice with 100 μL of the appropriate buffer (HK, pH 7.4) for OATP1B1, followed by HBSS (pH 7.4) for (NTCP, OAT1, OAT2v1, OATP1A2, and OATP1B3). Uptake experiments were carried out at 37 ± 1°C in 50 μL of the respective buffer containing the probe substrate and the compound or solvent. […] After the experiment, cells were washed twice with 100 μL of cold appropriate buffer and lysed with 50 μL of 0.1 M NaOH. Radiolabeled probe substrate transport was determined by measuring an aliquot (35 μL) from each well for liquid scintillation counting.

[5] = Pharmacokinetics in mice, serum and liver concentrations; conditions: for serum conc: mouse, 3 mg/kg p.o., individual animals, 3 mg/kg
Protocol: The mice were separated into four groups of 32 mice per group. […] At time point t = 0, animals received a single dose of the compounds orally. […] Four hours after drug administration, the animals received standard chow. […] After solubilization in extraction buffer, the solutions were shaken for 1 min and then centrifuged for 4 min (4000 x g).

[6] = Rat (Sprague Dawley) microsomes, mean n = 2
[7] = Dog (Beagle) microsomes, mean n = 2
[8] = Monkey (Cynomolgus) microsomes, mean n = 2
[9] = Mini pig microsomes, mean n = 2

CC#C[C@@H](CC(=O)O)c1ccc(OCC(C)=C(C)C)cc1 [CPL207280]
half-life at 3 μM [1, 6]: 69 min
microsomal CLint at 3 μM [1, 6]: 21.1 µL/min/mg
average DEG [%] ([1]; 0 min): 100.0%
average DEG [%] ([1]; 20 min): 80.9%
average DEG [%] ([1]; 40 min): 64.9%
average DEG [%] ([1]; 60 min): 55.0%
half-life at 3 μM [2, 7]: 81 min
microsomal CLint at 3 μM [2, 7]: 17.1 µL/min/mg
average DEG [%] ([2]; 0 min): 100.0%
average DEG [%] ([2]; 20 min): 86.5%
average DEG [%] ([2]; 40 min): 74.9%
average DEG [%] ([2]; 60 min): 59.3%
half-life at 3 μM [3, 8]: 23 min
microsomal CLint at 3 μM [3, 8]: 60.9 µL/min/mg
average DEG [%] ([3]; 0 min): 100.0%
average DEG [%] ([3]; 20 min): 64.8%
average DEG [%] ([3]; 40 min): 34.1%
average DEG [%] ([3]; 60 min): 16.3%
half-life at 3 μM [4, 9]: 31 min
microsomal CLint at 3 μM [4, 9]: 45 µL/min/mg
average DEG [%] ([4]; 0 min): 100.0%
average DEG [%] ([4]; 20 min): 67.0%
average DEG [%] ([4]; 40 min): 40.9%
average DEG [%] ([4]; 60 min): 26.3%
Accumulation in rat plasma after repeat dose (in vivo): No
Cmax at 14 days (in vivo; both sexes, Wistar Han, rat, 1200 mg/kg, Cmax): 250 µg/mL
Cmax (in vivo; both sexes, Wistar Han, rat, po, 150 mg/kg, Cmax): 125 µg/mL
AUC(0-t) (in vivo; both sexes, Wistar Han, rat, po, 300 mg/kg/day): 2350 µg·h/mL
Cmax (in vivo; both sexes, Wistar Han, rat, po, 300 mg/kg/day, Cmax (Mean)): 227 µg/mL
AUC(0-t) (in vivo; both sexes, Wistar Han, rat, po, 600 mg/kg/day): 2920 µg·h/mL
Cmax (in vivo; both sexes, Wistar Han, rat, po, 600 mg/kg/day, Cmax (Mean)): 257 µg/mL
Cmax (in vivo; both sexes, Wistar Han, rat, po, 1200 mg/kg, Cmax): 222 µg/mL
AUC (in vivo; both sexes, Wistar Han, rat, po, 1200 mg/kg, exposure - AUC): 2590 µg·h/mL
AUC24h (Mean) (in vivo; Wistar Han, rat, po, 300 mg/kg/day): 1605030 ng x hr/mL
AUC24h (Mean) (in vivo; Wistar Han, rat, po, 600 mg/kg/day): 2156620 ng x hr/mL
Accumulation (counts per minute; CPM) with AMP (MRP3; conc 0.10 µM): 240 CPM and 237 CPM
Accumulation (counts per minute; CPM) with ATP (MRP3; conc 0.10 µM): 3273 CPM and 4152 CPM
Accumulation (counts per minute; CPM) with AMP (MRP3; conc 1.00 µM): 221 CPM and 228 CPM
Accumulation (counts per minute; CPM) with ATP (MRP3; conc 1.00 µM): 4818 CPM and 3968 CPM
Accumulation (counts per minute; CPM) with AMP (MRP3; conc 3.00 µM): 249 CPM and 236 CPM
Accumulation (counts per minute; CPM) with ATP (MRP3; conc 3.00 µM): 4175 CPM and 4726 CPM
Accumulation (counts per minute; CPM) with AMP (MRP3; conc 10.00 µM): 274 CPM and 219 CPM
Accumulation (counts per minute; CPM) with ATP (MRP3; conc 10.00 µM): 3924 CPM and 3961 CPM
Accumulation (counts per minute; CPM) with AMP (MRP3; conc 30.00 µM): 231 CPM and 249 CPM
Accumulation (counts per minute; CPM) with ATP (MRP3; conc 30.00 µM): 5849 CPM and 5611 CPM
Accumulation (counts per minute; CPM) with AMP (MRP3; conc 100.00 µM): 250 CPM and 247 CPM
Accumulation (counts per minute; CPM) with ATP (MRP3; conc 100.00 µM): 5885 CPM and 4953 CPM
Accumulation (counts per minute; CPM) with AMP (MRP3; conc 300.00 µM): 206 CPM and 163 CPM
Accumulation (counts per minute; CPM) with ATP (MRP3; conc 300.00 µM): 6861 CPM and 6621 CPM
MRP3 Estimated IC50 (95% CI of IC50) (MRP3; vesicles, up to 300μM, n = 2): no affinity
Accumulation (counts per minute; CPM) HEK293-BSEP (BSEP; conc 0.41 µM): 13312 CPM and 13786 CPM and 14638 CPM
Accumulation (counts per minute; CPM) HEK293-MOCK (BSEP; conc 0.41 µM): 373 CPM and 338 CPM and 317 CPM
Accumulation (counts per minute; CPM) HEK293-BSEP (BSEP; conc 1.23 µM): 14288 CPM and 14991 CPM and 14336 CPM
Accumulation (counts per minute; CPM) HEK293-MOCK (BSEP; conc 1.23 µM): 402 CPM and 297 CPM and 306 CPM
Accumulation (counts per minute; CPM) HEK293-BSEP (BSEP; conc 3.70 µM): 14804 CPM and 15510 CPM and 14684 CPM
Accumulation (counts per minute; CPM) HEK293-MOCK (BSEP; conc 3.70 µM): 350 CPM and 288 CPM and 349 CPM
Accumulation (counts per minute; CPM) HEK293-BSEP (BSEP; conc 11.11 µM): 14585 CPM and 13490 CPM and 14701 CPM
Accumulation (counts per minute; CPM) HEK293-MOCK (BSEP; conc 11.11 µM): 382 CPM and 355 CPM and 370 CPM
Accumulation (counts per minute; CPM) HEK293-BSEP (BSEP; conc 33.33 µM): 14312 CPM and 13194 CPM and 13689 CPM
Accumulation (counts per minute; CPM) HEK293-MOCK (BSEP; conc 33.33 µM): 426 CPM and 364 CPM and 386 CPM
Accumulation (counts per minute; CPM) HEK293-BSEP (BSEP; conc 100 µM): 10784 CPM and 11964 CPM and 11554 CPM
Accumulation (counts per minute; CPM) HEK293-MOCK (BSEP; conc 100 µM): 273 CPM and 371 CPM
IC50 (OATP1B3): 42.9 µM
distribution between liver and serum ([5]; mice, single oral dose 3 mg/kg, 15 min to 24 h): serum was observed to be the central compartment
serum conc ([5]; 0.5 h): 6337 and 10977.8 and 8698.6 and 7860.2
serum conc ([5]; 1 h): 14190.2 and 17872.7 and 14644.7 and 11914.7
serum conc ([5]; 2 h): 4293.9 and 8727 and 12877.2 and 5407.3
serum conc ([5]; 4 h): 1048.2 and 2271.3 and 3572 and 4146.1
serum conc ([5]; 7 h): 456.3 and 1659.3 and 757.1 and 1712.9
serum conc ([5]; 12 h): 198.5 and 247.1 and 27.4 and 10.5
serum conc ([5]; 24 h): 14.5 and 37.9 and 532.6 and 298
Penetration into the liver ([5]; summary comparison CPL207280 vs TAK-875): <
